Source: patent publication US20160058775A1, “COMPOSITION AND FORMULATION OF ANTIMICROBIAL AGENTS, PROCESSES THEREOF AND METHODS FOR TREATING MICROBIAL INFECTIONS” (VYOME BIOSCIENCES PVT. LTD., priority 2013, published 2016)
Where two headings read alike, the source gives them in different places.

System: M. furfur
Source text: The time-kill assays were used to evaluate efficacy of antimicrobial agents, either singly or in combination, and the results can help in establishing the dose and/or time of application of the active. The time-kill assays were used to study both concentration-dependent and time-dependent antimicrobial action.
M. furfur cells were suspended in Sabouraud Dextrose Broth (SDB) at inoculum concentration of 7×10^7 cells/ml. Cells were taken from a freshly growing (3-7 days old) plate and cell suspension was vortexed to remove the cell clumps as much as possible. Sterile media were supplemented with chloramphenicol (0.25 mg/ml), cycloheximide (0.04 mg/ml) and olive oil (2%). The media were then supplemented with appropriate concentrations (two-fold serial dilutions using SDB) of unmodified zinc pyrithione API (10 μg/ml and 50 μg/ml) with different concentrations of Capmul 908-P (0%, 1%, 3%, 5% & 9%). The cultures were incubated on a tube rotator at 34° C. in CO2 incubator.
To measure the colony forming units (CFU), at different time points, aliquots (50 μl) of Malassezia cultures were serially diluted with SDBT medium (SDB containing 0.1% Triton X-100) and plated on SDA plates. The plates are incubated at 34° C. in CO2 incubator for 3 days. The viable colonies were counted and converted to CFU/ml.

zinc pyrithione [ZPT]
Log CFU Count of M. furfur (ZPT 10 μg/ml, Capmul 908-P 30 μg/ml, 6 hrs): 6.50 | Log CFU Count of M. furfur (ZPT 10 μg/ml, Capmul 908-P 30 μg/ml, 24 hrs): 5.94 | Log CFU Count of M. furfur (ZPT 10 μg/ml, Capmul 908-P 30 μg/ml, 48 hrs): 5.06 | Log CFU Count of M. furfur (ZPT 10 μg/ml, Capmul 908-P 50 μg/ml, 6 hrs): 6.37 | Log CFU Count of M. furfur (ZPT 10 μg/ml, Capmul 908-P 50 μg/ml, 24 hrs): 5.57 | Log CFU Count of M. furfur (ZPT 10 μg/ml, Capmul 908-P 50 μg/ml, 48 hrs): 4.80 | Log CFU Count of M. furfur (ZPT 10 μg/ml, Capmul 908-P 90 μg/ml, 6 hrs): 6.33 | Log CFU Count of M. furfur (ZPT 10 μg/ml, Capmul 908-P 90 μg/ml, 24 hrs): 5.55 | Log CFU Count of M. furfur (ZPT 10 μg/ml, Capmul 908-P 90 μg/ml, 48 hrs): 4.77 | Log CFU Count of M. furfur (ZPT 10 μg/ml, Capmul 908-P nil, 6 hrs): 6.56 | Log CFU Count of M. furfur (ZPT 10 μg/ml, Capmul 908-P nil, 24 hrs): 6.13 | Log CFU Count of M. furfur (ZPT 10 μg/ml, Capmul 908-P nil, 48 hrs): 5.27 | Log CFU Count of M. furfur (ZPT 50 μg/ml, Capmul 908-P 30 μg/ml, 6 h): 6.06 | Log CFU Count of M. furfur (ZPT 50 μg/ml, Capmul 908-P 30 μg/ml, 24 h): 4.69 | Log CFU Count of M. furfur (ZPT 50 μg/ml, Capmul 908-P 30 μg/ml, 48 h): 3.25 | Log CFU Count of M. furfur (ZPT 50 μg/ml, Capmul 908-P 50 μg/ml, 6 h): 5.94 | Log CFU Count of M. furfur (ZPT 50 μg/ml, Capmul 908-P 50 μg/ml, 24 h): 4.62 | Log CFU Count of M. furfur (ZPT 50 μg/ml, Capmul 908-P 50 μg/ml, 48 h): 3.04 | Log CFU Count of M. furfur (ZPT 50 μg/ml, Capmul 908-P 90 μg/ml, 6 h): 5.52 | Log CFU Count of M. furfur (ZPT 50 μg/ml, Capmul 908-P 90 μg/ml, 24 h): 3.63 | Log CFU Count of M. furfur (ZPT 50 μg/ml, Capmul 908-P 90 μg/ml, 48 h): 2.08 | Log CFU Count of M. furfur (ZPT 50 μg/ml, Capmul 908-P nil, 6 h): 6.43 | Log CFU Count of M. furfur (ZPT 50 μg/ml, Capmul 908-P nil, 24 h): 5.39 | Log CFU Count of M. furfur (ZPT 50 μg/ml, Capmul 908-P nil, 48 h): 3.92 | Anti-microbial activity towards M. furfur with increasing concentration of propylene glycol monocaprylate (Capmul 908-P) (time-kill, Tables 12 and 13): gets potentiated
